Drawing on patent US9133158B2, “Bicyclic dihydroisoquinoline-1-one derivatives” (Hoffmann-La Roche Inc., priority 2011, dated 2015), this text covers EC50 for 24 compounds.

pEC50: −log10 of the molar value.

A word on the pEC50: it is the negative decadic logarithm of the EC50, by convention in mol/L. Lower therefore signals a high EC50.

In test [1] the target is T1, human CYP11B1 (Homo sapiens, UniProt P15538).
T1 construct: expressed in transfected cells
T1 sequence (P15538 25-503): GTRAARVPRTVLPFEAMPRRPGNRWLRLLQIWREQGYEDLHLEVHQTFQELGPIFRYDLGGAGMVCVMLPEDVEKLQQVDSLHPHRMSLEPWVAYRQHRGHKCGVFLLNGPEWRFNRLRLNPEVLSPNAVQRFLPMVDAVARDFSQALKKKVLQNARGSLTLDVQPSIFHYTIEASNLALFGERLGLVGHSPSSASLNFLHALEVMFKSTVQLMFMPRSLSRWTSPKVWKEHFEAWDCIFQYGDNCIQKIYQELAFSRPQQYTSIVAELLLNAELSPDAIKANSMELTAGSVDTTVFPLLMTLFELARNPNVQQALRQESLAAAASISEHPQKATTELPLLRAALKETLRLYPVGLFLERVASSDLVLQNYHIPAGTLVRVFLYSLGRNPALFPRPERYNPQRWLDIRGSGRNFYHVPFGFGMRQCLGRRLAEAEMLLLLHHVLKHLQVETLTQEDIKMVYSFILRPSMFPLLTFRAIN
The test is described as follows: G-402 cellular enzyme assay, human CYP11B1 (cortisol release, HTRF). The format is cell-based. The following applies: G-402 cells, 1 μM Deoxycortisol. Summed up: (§1)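 Cellular format in stably transfected G-402 cells over 16 h. HTRF quantified aldosterone (CYP11B2, 1 μM deoxycorticosterone substrate) or cortisol (CYP11B1, 1 μM deoxycortisol substrate); EC50 obtained by fitting a 4-parameter sigmoid to dose–response data.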
(In general: TR-FRET usually uses a lanthanide donor and a delayed reading to cut background.)

Test [2] concerns the target T2, human CYP11B2 (Homo sapiens, UniProt P19099).
T2 construct: expressed in transfected cells
T2 sequence (P19099 25-503): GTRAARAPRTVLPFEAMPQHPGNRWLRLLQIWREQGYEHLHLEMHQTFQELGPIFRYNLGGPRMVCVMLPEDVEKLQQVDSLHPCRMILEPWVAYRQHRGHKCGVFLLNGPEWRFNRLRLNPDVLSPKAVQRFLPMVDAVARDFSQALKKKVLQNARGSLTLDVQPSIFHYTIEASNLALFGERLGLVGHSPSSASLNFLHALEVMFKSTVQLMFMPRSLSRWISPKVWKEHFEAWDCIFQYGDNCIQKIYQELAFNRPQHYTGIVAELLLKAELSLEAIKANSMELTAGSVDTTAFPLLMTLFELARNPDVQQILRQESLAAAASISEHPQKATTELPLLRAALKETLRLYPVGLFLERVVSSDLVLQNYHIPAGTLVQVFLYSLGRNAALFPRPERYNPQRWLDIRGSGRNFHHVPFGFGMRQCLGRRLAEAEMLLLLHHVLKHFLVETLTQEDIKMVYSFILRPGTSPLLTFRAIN
Briefly: G-402 cellular enzyme assay, human CYP11B2 (aldosterone release, HTRF). The format is cell-based. The following applies: G-402 cells, 1 μM Deoxycorticosterone. Summed up: as §1

As for `CC1(C)c2ccc(Cl)cc2C(=O)N1c1cncc(CNS(C)(=O)=O)c1` [Example 408, N-[5-(5-Chloro-1,1-dimethyl-3-oxo-1,3-dihydro-isoindol-2-yl)-pyridin-3-ylmethyl]-methane-sulfonamide], the negative logarithm of the EC50 (pEC50) in test [1] is 4.85; in test [2], 6.03.

Regarding `O=C(NC1CC1)c1cncc(N2CCc3cc(Cl)ccc3C2=O)c1` [Example 44, 5-(6-Chloro-1-oxo-3,4-dihydro-1H-isoquinolin-2-yl)-N-cyclopropyl-nicotinamide], the negative-log EC50 (pEC50) in test [1] is 4.77; in test [2] it was 5.23.

As to `O=C1c2ccc(Cl)cc2CCN1c1cncc(CN2CCCS2(=O)=O)c1` [Example 82, 6-Chloro-2-[5-(1,1-dioxo-1^λ6-isothiazolidin-2-ylmethyl)-pyridin-3-yl]-3,4-dihydro-2H-isoquinolin-1-one], the pEC50 in test [1] was 6.22; in test [2], 7.10.

Regarding `CCC(=O)N[C@@H]1CCc2c1cncc2N1C(=O)c2ccc(Cl)cc2[C@H]1C` (single isomer, unassigned) [Example 376, N-[(R or S)-4-((R or S)-5-Chloro-3-methyl-1-oxo-1,3-dihydro-isoindol-2-yl)-6,7-dihydro-5H-[2]pyrindin-7-yl]-propionamide], the pEC50 is 5.10 in test [1] and 7.59 in test [2].

For the compound `O=C1c2ccc(Cl)cc2CCN1c1cncc(O)c1` [Example 252, 6-Chloro-2-(5-hydroxy-pyridin-3-yl)-3,4-dihydro-2H-isoquinolin-1-one], the pEC50 in test [1] is 5.01; in test [2], 6.57.

In the case of `CC1CN(c2cncc(F)c2)C(=O)c2ccc(Cl)cc21` (stereo not drawn) [Example 106, 6-Chloro-2-(5-fluoro-pyridin-3-yl)-4-methyl-3,4-dihydro-2H-isoquinolin-1-one], the pEC50 in test [1] is 5.07; in test [2], 6.29.

Consider `COc1cncc(N2CCc3nc(OC)ccc3C2=O)c1` [Example 97, 2-Methoxy-6-(5-methoxy-pyridin-3-yl)-7,8-dihydro-6H-[1,6]naphthyridin-5-one], for which the pEC50 is 6.66 in test [1] and 7.77 in test [2].

For `O=C1c2ccc(Cl)cc2CCN1c1cncc(CN2CCCC(O)C2)c1` (stereo not drawn) [Example 144, 6-Chloro-2-[5-(3-hydroxy-piperidin-1-ylmethyl)-pyridin-3-yl]-3,4-dihydro-2H-isoquinolin-1-one], the negative-log EC50 (pEC50) was 6.85 in test [1] and 7.63 in test [2].

Turning to `O=C1CCCCN1Cc1cncc(N2Cc3cc(Cl)ccc3C2=O)c1` [Example 114, 5-Chloro-2-[5-(2-oxo-piperidin-1-ylmethyl)-pyridin-3-yl]-2,3-dihydro-isoindol-1-one], the negative-log EC50 (pEC50) in test [1] was 4.89; in test [2], 6.37.

In the case of `CC1c2cc(Cl)ccc2C(=O)N1c1cncc(F)c1` (stereo not drawn) [Example 123, 5-Chloro-2-(5-fluoro-pyridin-3-yl)-3-methyl-2,3-dihydro-isoindol-1-one], the pEC50 in test [1] was 5.11; in test [2] it was 6.91.

For the compound `CC(=O)N[C@H]1CCCc2c1cncc2N1C(=O)c2ccc(Cl)cc2[C@H]1C` (single isomer, unassigned) [Example 363, N-[(S or R)-4-((R or S)-5-Chloro-3-methyl-1-oxo-1,3-dihydro-isoindol-2-yl)-5,6,7,8-tetrahydro-isoquinolin-8-yl]-acetamide], the pEC50 in test [1] was 5.63; in test [2] it was 6.77.

On to `O=C1c2ccc(Cl)cc2CCN1c1cncc2cccc([N+](=O)[O-])c12` [Example 286, 6-Chloro-5′-nitro-3,4-dihydro-[2,4′]biisoquinolinyl-1-one], for which the negative logarithm of the EC50 (pEC50) in test [1] was 5.52; in test [2], 6.58.

As for `O=C1c2ccc(Cl)cc2CCN1c1cncc(N2CCC[C@H]2CO)c1` [Example 135, 6-Chloro-2-[5-((S)-2-hydroxymethyl-pyrrolidin-1-yl)-pyridin-3-yl]-3,4-dihydro-2H-isoquinolin-1-one], the pEC50 is 6.28 in test [1] and 7.03 in test [2].

For `O=C1c2ccc(Cl)cc2CCN1c1cncc2c1CCCC2O` (stereo not drawn) [Example 28, 6-Chloro-8′-hydroxy-3,4,5′,6′,7′,8′-hexahydro-[2,4′]biisoquinolinyl-1-one], the pEC50 in test [1] was 6.12; in test [2], 6.99.

Consider `O=C1c2ccc(Cl)cc2CCN1c1cncc(-c2ccccc2C(F)(F)F)c1` [Example 242, 6-Chloro-2-[5-(2-trifluoromethyl-phenyl)-pyridin-3-yl]-3,4-dihydro-2H-isoquinolin-1-one], for which the negative-log EC50 (pEC50) in test [1] is 6.69; in test [2], 7.59.

Consider `O=C1c2ccc(Cl)cc2CCN1c1cncc(NS(=O)(=O)C2CC2)c1` [Example 221, Cyclopropanesulfonic acid [5-(6-chloro-1-oxo-3,4-dihydro-1H-isoquinolin-2-yl)-pyridin-3-yl]-amide], for which the figures for the negative logarithm of the EC50 (pEC50) in test [1] and in test [2] were 4.99 and 5.67, respectively.

On to `O=C(Nc1cncc(N2CCc3cc(Cl)ccc3C2=O)c1)Nc1cccc(C(F)(F)F)c1` [Example 251, 1-[5-(6-Chloro-1-oxo-3,4-dihydro-1H-isoquinolin-2-yl)-pyridin-3-yl]-3-(3-trifluoromethyl-phenyl)-urea], for which the pEC50 in test [1] is 4.80; in test [2], 5.23.

`O=C1c2ccc(Cl)cc2CCN1c1cncc(CNC2COC2)c1` [Example 164, 6-Chloro-2-[5-(oxetan-3-ylaminomethyl)-pyridin-3-yl]-3,4-dihydro-2H-isoquinolin-1-one]: the negative logarithm of the EC50 (pEC50) in test [1] is 6.06; in test [2], 6.85.

`CC(=O)NC1CCCc2c1cncc2N1C(=O)c2ccc(Cl)cc2C1(C)C` (single isomer, unassigned) [Example 466, N—[(S or R)-4-(6-Chloro-1,1-dimethyl-3-oxo-1,3-dihydro-isoindol-2-yl)-5,6,7,8-tetrahydro-isoquinolin-8-yl]-acetamide]: the pEC50 is 4.67 in test [1] and 6.33 in test [2].

Regarding `CC[C@@H]1c2cc(Cl)ccc2C(=O)N1c1cncc2c1CC[C@@H]2NS(C)(=O)=O` (single isomer, unassigned) [Example 367, N-[(S or R)-4-((R or S)-5-Chloro-3-ethyl-1-oxo-1,3-dihydro-isoindol-2-yl)-6,7-dihydro-5H-[2]pyrindin-7-yl]-methanesulfonamide], the negative-log EC50 (pEC50) in test [1] is 5.28; in test [2], 7.21.

As for `O=c1c2ccc(Cl)cc2ccn1-c1cccnc1` [Example 53, 6-Chloro-2-pyridin-3-yl-2H-isoquinolin-1-one], the negative-log EC50 (pEC50) was 4.97 in test [1] and 6.92 in test [2].

`Cc1ccc(C(=O)NCc2cncc(N3C(=O)c4ccc(Cl)cc4C3(C)C)c2)cn1` [Example 436, N-[5-(6-Chloro-1,1-dimethyl-3-oxo-1,3-dihydro-isoindol-2-yl)-pyridin-3-ylmethyl]-6-methyl-nicotinamide]: the negative-log EC50 (pEC50) was 6.80 in test [1] and 8.24 in test [2].

Turning to `O=C1c2ccc(Cl)cc2CCN1c1cncc(COCC2CC2)c1` [Example 198, 6-Chloro-2-(5-cyclopropylmethoxymethyl-pyridin-3-yl)-3,4-dihydro-2H-isoquinolin-1-one], the pEC50 in test [1] was 6.00; in test [2], 5.61.

Regarding `CCS(=O)(=O)N1CC(Oc2cncc(N3C(=O)c4ccc(Cl)cc4C3(C)C)c2)C1` [Example 453, 5-Chloro-2-[5-(1-ethanesulfonyl-azetidin-3-yloxy)-pyridin-3-yl]-3,3-dimethyl-2,3-dihydro-isoindol-1-one], the pEC50 was 6.06 in test [1] and 8.29 in test [2].
